Experimental data taken from US7435822B2, “3-(diheteroarylmethylene)-8-azabicyclo[3.2.1]octane and 3-((aryl)(heteroaryl)methylene)-8-azabicyclo[3.2.1]octane derivatives” (Janssen Pharmaceutica N.V., priority 2004, dated 2008).
Like-named read-outs stand apart in the source and are kept apart here.

Tests used:
[1] = molecular target: T1, δ-opioid receptor (Rattus norvegicus, UniProt P33533); assay: Rat brain δ-opioid receptor binding assay; conditions: for μ/δ (ratio of the μ-opioid receptor binding to the δ-opioid receptor binding): ratio of Ki μ to Ki δ, rat brain
T1 construct: the forebrains are homogenized in Tris buffer in a Teflon®-glass homogenizer; from tissue; host or cells: rat (male Wistar) forebrain, particulate membrane preparation
T1 sequence (P33533 whole entry): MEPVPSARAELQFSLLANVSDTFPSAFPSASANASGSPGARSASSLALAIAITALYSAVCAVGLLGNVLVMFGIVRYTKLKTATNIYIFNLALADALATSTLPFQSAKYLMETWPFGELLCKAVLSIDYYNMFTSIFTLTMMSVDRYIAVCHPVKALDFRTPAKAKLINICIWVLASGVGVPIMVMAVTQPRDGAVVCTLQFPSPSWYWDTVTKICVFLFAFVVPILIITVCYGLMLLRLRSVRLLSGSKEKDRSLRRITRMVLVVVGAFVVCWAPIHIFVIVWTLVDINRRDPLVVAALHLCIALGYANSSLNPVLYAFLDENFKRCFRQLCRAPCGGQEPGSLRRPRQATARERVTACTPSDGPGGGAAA
Method: Rat Brain δ-Opioid Receptor Binding Assay
Male, Wistar rats (150-250 g, VAF, Charles River, Kingston, N.Y.) are killed by cervical dislocation, and their brains removed and placed immediately in ice cold Tris HCl buffer (50 mM, pH 7.4). The forebrains are separated from the remainder of the brain by a coronal transection, beginning dorsally at the colliculi and passing ventrally through the midbrain-pontine junction. After dissection, the forebrains are homogenized in Tris buffer in a Teflon®-glass homogenizer. The homogenate is diluted to a concentration of 1 g of forebrain tissue per 100 mL Tris buffer and centrifuged at 39,000×G for 10 min. The pellet is resuspended in the same volume of Tris buffer with several brief pulses from a Polytron homogenizer. This particulate preparation is used for the δ-opioid binding assays. […] The tubes and filters are rinsed three times with 4 mL of 10 mM HEPES (pH 7.4), and the radioactivity associated with the filter circles determined using Formula 989 scintillation fluid (New England Nuclear, Boston, Mass.) in a scintillation counter.
(§1) The data are used to calculate either the % inhibition compared to control binding (when only a single concentration of test compound is evaluated) or a Ki value (when a range of concentrations is tested).
% Inhibition was calculated as follows: […]
Ki value is calculated using the LIGAND (Munson, P. J. and Rodbard, D., Anal. Biochem. 107: 220-239,1980) data analysis program.

[2] = molecular target: T2, μ-opioid receptor (Rattus norvegicus, UniProt P33535); assay: Rat brain μ-opioid receptor binding assay
T2 construct: the forebrains are homogenized in Tris buffer in a Teflon®-glass homogenizer; from tissue; host or cells: rat (male Wistar) forebrain, particulate membrane preparation
T2 sequence (P33535 whole entry): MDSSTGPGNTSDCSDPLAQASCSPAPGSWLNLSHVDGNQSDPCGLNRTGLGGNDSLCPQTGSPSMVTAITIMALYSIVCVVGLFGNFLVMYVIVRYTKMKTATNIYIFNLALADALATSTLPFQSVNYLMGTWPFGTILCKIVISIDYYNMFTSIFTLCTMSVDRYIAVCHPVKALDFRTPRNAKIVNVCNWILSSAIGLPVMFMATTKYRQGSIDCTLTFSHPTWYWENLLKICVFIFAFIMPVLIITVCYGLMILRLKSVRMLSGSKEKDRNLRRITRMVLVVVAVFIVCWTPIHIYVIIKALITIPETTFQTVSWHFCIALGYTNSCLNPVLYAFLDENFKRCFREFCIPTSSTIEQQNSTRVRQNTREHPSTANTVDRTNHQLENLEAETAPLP
Method: Rat Brain μ-Opioid Receptor Binding Assay
Male, Wistar rats (150-250 g, VAF, Charles River, Kingston, N.Y.) are killed by cervical dislocation and their brains removed and placed immediately in ice cold Tris HCl buffer (50 mM, pH 7.4). The forebrains are separated from the remainder of the brain by a coronal transection, beginning dorsally at the colliculi and passing ventrally through the midbrain-pontine junction. After dissection, the forebrains are homogenized in Tris buffer in a Teflon®-glass homogenizer. The homogenate is diluted to a concentration of 1 g of forebrain tissue per 100 mL Tris buffer and centrifuged at 39,000×G for 10 min. The pellet is resuspended in the same volume of Tris buffer with several brief pulses from a Polytron homogenizer. This particulate preparation is used for the μ-opioid binding assays.
as §1
% Inhibition is calculated as follows: […]

[3] = rat forebrain particulate preparation, [3H]DPDPE, 25° C., read-out: Ki (nM) δ
[4] = rat forebrain particulate preparation, [3H]DAMGO, 25° C., read-out: Ki (nM) μ

SMILES | Ki [1] [nM] | μ/δ (ratio of the μ-opioid receptor binding to the δ-opioid receptor binding) [1] | Ki [2] [nM] | Ki [1, 3] [nM] | Ki [2, 4] [nM]
Cc1ccc(CN2C3CCC2CC(=C(c2ccc(O)cc2)c2ccsc2)C3)s1 [Example 44, 4-{[8-(5-Methyl-thiophen-2-ylmethyl)-8-aza-bicyclo[3.2.1]oct-3-ylidene]-thiophen-3-yl-methyl}-phenol] | 9.04 | 8.33 | 75.2 | – | –
Oc1ccc(C(=C2CC3CCC(C2)N3Cc2ccccc2Cl)c2ccsc2)cc1 [Example 41, 4-{[8-(2-Chloro-benzyl)-8-aza-bicyclo[3.2.1]oct-3-ylidene]-thiophen-3-yl-methyl}phenol] | 12.5 | 2.91 | 36.5 | – | –
Cc1ccsc1CN1C2CCC1CC(=C(c1ccccc1)c1ccsc1)C2 [Example 8, 8-(3-Methyl-thiophen-2-ylmethyl)-3-(phenyl-thiophen-3-yl-methylene)-8-aza-bicyclo[3.2.1]octane] | 38.3 | – | – | – | –
Cc1ccc(CN2C3CCC2CC(=C(c2ccsc2)c2cccc(O)c2)C3)s1 [Example 28, 3-{[8-(5-Methyl-thiophen-2-ylmethyl)-8-aza-bicyclo[3.2.1]oct-3-ylidene]-thiophen-3-yl-methyl}-phenol] | 1.65 | 7.65 | 12.6 | – | –
Oc1ccc(C(=C2CC3CCC(C2)N3Cc2cccs2)c2ccsc2)cc1 [Example 42, 4-[Thiophen-3-yl-(8-thiophen-2-ylmethyl-8-aza-bicyclo[3.2.1]oct-3-ylidene) -methyl]phenol] | 2.92 | 30.54 | 89.2 | – | –
Oc1cccc(C(=C2CC3CCC(C2)N3)c2ccsc2)c1 [Example 20, 3-[(8-Aza-bicyclo[3.2.1]oct-3-ylidene)-thiophen-3-yl-methyl]-phenol] | 6.27 | 3.93 | 24.7 | – | –
Cc1ccccc1CN1C2CCC1CC(=C(c1ccccc1)c1ccsc1)C2 [Example 5, 8-(2-Methyl-benzyl)-3-(phenyl-thiophen-3-yl-methylene)-8-aza-bicyclo[3.2.1]octane] | – | 21.28 | – | 193 | 4110
Oc1cccc(C(=C2CC3CCC(C2)N3CCc2ccccc2)c2ccsc2)c1 [Example 23, 3-[(8-Phenethyl-8-aza-bicyclo[3.2.1]oct-3-ylidene)-thiophen-3-yl-methyl]-phenol] | – | – | 37 | 437 | –
CC(C)=CCN1C2CCC1CC(=C(c1ccccc1)c1ccsc1)C2 [Example 3, 8-(3-Methyl-but-2-enyl)-3-(phenyl-thiophen-3-yl-methylene)-8-aza-bicyclo[3.2.1]octane] | 21.1 | 8.37 | – | – | 177
Oc1ccc(C(=C2CC3CCC(C2)N3CCc2ccccc2)c2ccsc2)cc1 [Example 39] | 397 | 0.42 | 166 | – | –
Cc1ccccc1CN1C2CCC1CC(=C(c1ccc(O)cc1)c1ccsc1)C2 [Example 40, 4-{[8-(2-Methyl-benzyl)-8-aza-bicyclo[3.2.1]oct-3-ylidene]-thiophen-3-yl-methyl}-phenol] | 35.7 | 1.82 | 64.8 | – | –
CC(C)=CCN1C2CCC1CC(=C(c1ccsc1)c1cccc(O)c1)C2 [Example 21, 3-{[8-(3-Methyl-but-2-enyl)-8-aza-bicyclo[3.2.1]oct-3-ylidene]-thiophen-3-yl-methyl}-phenol] | 0.91 | 7.8 | 7.1 | – | –
C=CCN1C2CCC1CC(=C(c1ccsc1)c1cccc(O)c1)C2 [Example 22, 3-[(8-Allyl-8-aza-bicyclo[3.2.1]oct-3-ylidene)-thiophen-3-yl-methyl]-phenol] | 1.69 | 15.6 | 26 | – | –
c1ccc(C(=C2CC3CCC(C2)N3)c2ccsc2)cc1 [Example 2, 3-(Phenyl-thiophen-3-yl-methylene)-8-aza-bicyclo[3.2.1]octane] | 68 | – | – | – | –
c1ccc(C(=C2CC3CCC(C2)N3Cc2cccs2)c2ccsc2)cc1 [Example 7, 3-(Phenyl-thiophen-3-yl-methylene)-8-thiophen-2-ylmethyl-8-aza-bicyclo[3.2.1]octane] | 62.6 | 6.69 | – | – | 418
Cc1ccccc1CN1C2CCC1CC(=C(c1ccsc1)c1cccc(O)c1)C2 [Example 24] | 5.96 | 8.15 | 48.6 | – | –
Oc1cccc(C(=C2CC3CCC(C2)N3Cc2cccs2)c2ccsc2)c1 [Example 26, 3-[Thiophen-3-yl-(8-thiophen-2-ylmethyl-8-aza-bicyclo[3.2.1]oct-3-ylidene)-methyl]-phenol] | 0.17 | 31.78 | 5.4 | – | –
Cc1ccsc1CN1C2CCC1CC(=C(c1ccsc1)c1cccc(O)c1)C2 [Example 27, 3-{[8-(3-Methyl-thiophen-2-ylmethyl)-8-aza-bicyclo[3.2.1]oct-3-ylidene]-thiophen-3-yl-methyl}-phenol] | 5.85 | 5.20 | 30.4 | – | –
Oc1cccc(C(=C2CC3CCC(C2)N3Cc2ccccc2Cl)c2ccsc2)c1 [Example 25, 3-{[8-(2-Chloro-benzyl)-8-aza-bicyclo[3.2.1]oct-3-ylidene]-thiophen-3-yl-methyl}-phenol] | 1.69 | 20.22 | 34.2 | – | –
c1ccc(CCN2C3CCC2CC(=C(c2ccccc2)c2ccsc2)C3)cc1 [Example 4, 8-Phenethyl-3-(phenyl-thiophen-3-yl-methylene)-8-aza-bicyclo[3.2.1]octane] | – | 0.29 | – | 903 | 265
Clc1ccccc1CN1C2CCC1CC(=C(c1ccccc1)c1ccsc1)C2 [Example 6, 8-(2-Chloro-benzyl)-3-(phenyl-thiophen-3-yl-methylene)-8-aza-bicyclo[3.2.1]octane] | – | – | – | 229 | 1310
Cc1ccsc1CN1C2CCC1CC(=C(c1ccc(O)cc1)c1ccsc1)C2 [Example 43, 4-{[8-(3-Methyl-thiophen-2-ylmethyl)-8-aza-bicyclo[3.2.1]oct-3-ylidene]-thiophen-3-yl-methyl}-phenol] | 31.4 | 5.94 | – | – | 187
CC(C)=CCN1C2CCC1CC(=C(c1ccc(O)cc1)c1ccsc1)C2 [Example 38, 4-{[8-(3-Methyl-but-2-enyl)-8-aza-bicyclo[3.2.1]oct-3-ylidene]-thiophen-3-yl-methyl}-phenol] | 5.37 | 17.3 | 93 | – | –
Cc1ccc(CN2C3CCC2CC(=C(c2ccccc2)c2ccsc2)C3)s1 [Example 9, 8-(5-Methyl-thiophen-2-ylmethyl)-3-(phenyl-thiophen-3-yl-methylene)-8-aza-bicyclo[3.2.1]octane] | 38.8 | 10.66 | – | – | 413
